Measured values as given in publication PMC3578829, “A Small Molecule (Pluripotin) as a Tool for Studying Cancer Stem Cell Biology: Proof of Concept” (PLoS ONE, 2013).
Values joined by “and” are separate entries in the source; they are usually repeats but may differ in a detail not shown here. Equal entries are not always repeated.

How the values were obtained:
[1] = tested on: OCT4; test: Immunoblotting of OCT4 in remaining colon tumor lines; assay type: cell-based; conditions: 0.1 µM SC-1
Protocol: Standard protein electrophoretic techniques were followed using previously published protocols. For these studies, the colon lines were cultured for 5 days with and without treatments, harvested with trypsin (0.25% trypsin 0.5 mM EDTA, Invitrogen), counted and lysed with a whole cell lysis buffer (10 mM Tris, 1.0 mM EDTA, 50 mM NaCl, 0.5% deoxycholate, 0.5% NP-40, 0.5% SDS, 1.0 mM PMSF, and aprotonin and a cocktail of phosphatase and protease inhibitors). The whole cell lysate was heated to 100°C for 10 min and then fractionated (1000 g, 10 min, 4°C). Protein concentrations were measured with the Pierce BCA Protein Assay. Twenty to 40 µg of protein lysate per lane were loaded onto 10% SDS polyacrylamide gels (Ready-Gels, Biorad) with Laemmli buffer. For immunoblotting, the primary antibodies were diluted in Tween/Tris wash buffer (0.1 mM Tris-HCl pH 7.5, 2.5% Tween-20, 150 mM NaCl) and 5% BSA or nonfat dry milk and incubated overnight at 4°C. Visualization of specific bands was accomplished with an alkaline phosphatase-labeled secondary anti-immunoglobulin antibody and the ECF Chemifluorescent reagent (GE Amersham). Pixel intensity of the imaged bands was measured using STORM (GE Amersham) and Image Quant Software. Normalization for loading was accomplished by reprobing with an anti-actin antibody, quantification of pixel intensity and data normalization.

[2] = molecular target: Aurora kinase B (Homo sapiens, UniProt Q96GD4); test: In vitro kinase inhibition assay (same assay as RSK2); assay type: biochemical
Protocol: (§1) RSK2 (90 kD ribosomal S6 kinase), a kinase with both a N- and C-terminal functional domains, phosphorylates multiple targets and is phosphorylated by ERK1/2, another SC-1 target. As a downstream effector, RSK2 signals many cellular behaviors including cell survival, growth, proliferation, and migration. […] Potential inhibitory activity of SC-1 on a random selection of other protein kinases (Aurora kinase B, CHK1, and CHK2) was also evaluated in the same assay and no effect was found (Figure 4A). To determine if activity of related (to RSK2) protein kinases in the AGC kinase family was inhibited by SC-1, further studies were conducted (Table 3). […] Because SC-1 inhibited these selected kinases in the micromolar range and the kinase assay is distinct from the one reporting data in Figure 4A, the positive EC50 value for Abl1 kinase was reported in Table 3 as well. These findings were consistent with predictions reported by Okram et al..
(§2) The RSK2 in vitro kinase inhibition assay utilized was a modification of protocols established by Nguyen et al.. Additional protocols that confirmed the results depicted in Figure 4 and evaluated kinase inhibitory activity in a random selection of protein kinases (Table 3) were conducted at Reaction Biology Corporation (Malvern, PA). This was a miniaturized ^33P-based screening assay.

[3] = molecular target: CHK2 (Homo sapiens, UniProt O96017); test: as above; assay type: biochemical
Protocol: as §1, §2

[4] = molecular target: CHK1 (Homo sapiens, UniProt O14757); test: as above; assay type: biochemical
Protocol: as §1, §2

[5] = tested on: Seven Colon Tumor Lines of the NCI60 Panel; test: Limiting dilution tumorigenicity, combined colon tumor lines; assay type: in vivo, NOD.SCID mice; conditions: for Tumor take rate, TOTAL: 7 colon tumor lines treated 5 days with 0.1 µM SC-1
Protocol: (§3) Five day exposures were conducted.
(§4) Six week old female NOD.SCID mice were randomly assigned to each of 20 treatment arms (n = 5/group). Treated and control colon tumor lines were enzymatically harvested and counted prior to dilution in RPMI 1640 (at 10, 100, 1,000, 10,000 cells/inoculum) for subcutaneous injection into the axillary region using a volume of […]. Positive control groups were established such that tumor formation occurred in all mice in approximately one week thus confirming that all tumor lines studied were tumorigenic. Cell inocula for the positive control groups ranged from 1×10^6 to 2.5×10^6. Cell viability of the cell stocks was assessed by trypan blue exclusion prior to dilution for injection and was routinely found to be >95%. Tumor formation was monitored weekly using caliper measurements and the tumor mass was calculated as weight in mg = 1/2×(tumor length)×(tumor width)^2. All experiments were terminated at 120 days or when tumor weight exceeded 2000 mg for any individual mouse. In selected studies, tumor cells were resuspended in Matrigel (50% concentration, BD Biosciences) prior to injection.
Chi square tests and nonparametric conditional estimate for the Cochran Mantel-Haenzel common odds ratio were performed for the limiting dilution tumorigenicity studies. In the later case, the tumor lines were used as the stratification variable and the test evaluated whether the tumor take rate was equal in the two groups (control and treated). The purpose of combining data across distinct colon tumor lines was to aggregate small changes that if summed, may represent a heterogeneous population of patients with colon tumors, similar to analyses in clinical trials.

[6] = tested on: COLO 205; test: FACS analysis of putative CSC surface markers; assay type: cell-based; conditions: five days of SC-1 treatment
Text: A BD FACsAria (BD Biosciences, San Jose, CA) was utilized for FACS analysis according to standard procedures. The instrument was equipped with a 488 nm 100 mW blue laser, a 638 nm 30 mW red laser, and a 405 nm 50 mW violet laser. The software package Diva 5.0 (BD Biosciences) was used for collection and analysis of data. The alignment of the three lasers in the flow cell was verified prior to running tumor cell samples by running Rainbow Beads (Spherotech). The six colors being used in the analysis were then compensated to account for spectral overlap emitted by the fluorochromes within each laser as well as across the lasers using a semi-automated process. […] The data was then run through the Diva software compensation matrices and the amount of “spectral bleed” from other fluorochromes into the fluorochrome of interest’s channel was determined and automatically compensated.
Treated and untreated cells (1×10^6 cells/condition) were harvested with trypsin EDTA (Invitrogen), washed, and then labeled with a six antibody cocktail (antibodies against the following epitopes: CD44, CD24, CD133, CD326, CD166, and P-glycoprotein in PBS without calcium and magnesium supplemented with 2% FBS) or appropriate isotype control antibodies. […] The specific amounts needed for each labeled antibody were determined through titration studies. […]

[7] = tested on: HCT-15; test: Limiting dilution tumorigenicity, s.c. xenograft without protein support; assay type: in vivo, NOD.SCID mice; conditions: HCT-15 treated 5 days with 0.1 µM SC-1
Protocol: as §3, §4

Sequence of CHK1 (O14757 whole entry, species assumed): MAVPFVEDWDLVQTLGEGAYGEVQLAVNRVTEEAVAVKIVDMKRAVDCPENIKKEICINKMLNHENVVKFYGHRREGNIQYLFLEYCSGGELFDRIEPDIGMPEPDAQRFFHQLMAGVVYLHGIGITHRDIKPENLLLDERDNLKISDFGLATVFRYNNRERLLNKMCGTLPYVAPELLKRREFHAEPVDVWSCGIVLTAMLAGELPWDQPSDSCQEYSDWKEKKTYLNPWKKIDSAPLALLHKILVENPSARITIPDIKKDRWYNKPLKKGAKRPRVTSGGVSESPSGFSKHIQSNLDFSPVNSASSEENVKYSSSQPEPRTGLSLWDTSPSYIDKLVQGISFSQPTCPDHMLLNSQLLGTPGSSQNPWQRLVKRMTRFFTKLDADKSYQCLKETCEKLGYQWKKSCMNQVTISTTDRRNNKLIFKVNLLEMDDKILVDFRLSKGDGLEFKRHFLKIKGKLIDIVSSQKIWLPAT
Sequence of CHK2 (O96017 whole entry, species assumed): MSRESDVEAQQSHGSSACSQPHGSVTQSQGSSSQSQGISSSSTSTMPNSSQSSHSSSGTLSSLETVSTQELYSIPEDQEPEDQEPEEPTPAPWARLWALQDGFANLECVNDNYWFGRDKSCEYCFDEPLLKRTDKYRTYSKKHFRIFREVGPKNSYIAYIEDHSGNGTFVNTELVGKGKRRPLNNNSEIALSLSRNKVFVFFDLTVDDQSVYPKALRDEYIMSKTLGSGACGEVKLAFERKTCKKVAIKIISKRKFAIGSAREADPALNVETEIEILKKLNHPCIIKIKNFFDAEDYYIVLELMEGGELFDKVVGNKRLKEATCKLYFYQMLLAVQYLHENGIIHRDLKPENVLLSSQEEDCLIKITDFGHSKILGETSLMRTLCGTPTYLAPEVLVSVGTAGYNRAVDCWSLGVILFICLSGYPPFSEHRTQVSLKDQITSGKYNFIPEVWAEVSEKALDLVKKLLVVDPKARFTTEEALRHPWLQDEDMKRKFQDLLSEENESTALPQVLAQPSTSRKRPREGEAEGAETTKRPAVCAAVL
Sequence of Aurora kinase B (Q96GD4 whole entry, species assumed, the tested form may be a part): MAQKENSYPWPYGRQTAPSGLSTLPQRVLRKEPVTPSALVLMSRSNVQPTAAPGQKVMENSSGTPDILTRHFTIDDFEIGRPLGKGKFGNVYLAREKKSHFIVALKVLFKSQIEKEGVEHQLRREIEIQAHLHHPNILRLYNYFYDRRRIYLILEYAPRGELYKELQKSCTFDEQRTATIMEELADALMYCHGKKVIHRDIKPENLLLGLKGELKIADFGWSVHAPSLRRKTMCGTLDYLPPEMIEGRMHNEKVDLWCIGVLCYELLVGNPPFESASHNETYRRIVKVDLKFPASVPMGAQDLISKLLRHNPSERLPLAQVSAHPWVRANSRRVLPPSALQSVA

Inhibitory activity on kinase [2]: no effect | Inhibitory activity on kinase [3]: no effect | Inhibitory activity on kinase [4]: no effect
SMILES: Cc1cc(Nc2ncc3c(n2)N(C)C(=O)N(c2cc(NC(=O)c4cccc(C(F)(F)F)c4)ccc2C)C3)n(C)n1 [SC-1]
OCT4 protein expression [1]: unchanged or decreased | Tumor take rate, TOTAL ([5]; 100 cells inoculated s.c.): 2/35 | Tumor take rate, TOTAL ([5]; 1000 cells inoculated s.c.): 6/35 | Tumor take rate, TOTAL ([5]; 10000 cells inoculated s.c.): 19 of 35 and 19/35 | Frequency estimate of tumor initiating ability, increase vs control ([5]; cumulative tumor take rate, 7 colon tumor lines, calculated from Taswell): approximately 2 fold | Mean day to 1000 mg tumor ([5]; mean±s.e.m. of 5 colon lines forming tumors, 10,000 cells/inoculum, 0.1 µM SC-1 pretreatment): 83 ± 19 days | Expression of the putative CSC markers [6]: No increased expression | Tumor take rate ([7]; 100 cells inoculated s.c.): 0/5 | Tumor take rate ([7]; 1000 cells inoculated s.c.): 0/5 | Tumor take rate ([7]; 10000 cells inoculated s.c.): 0/5
